Laboratory results from the supplement of paper PMC11451515.

Tested on: SEM cells
Experiment: cell viability relative to DMSO control; higher = less cytotoxic
Conditions: 48 h
Outline: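 Viability is a per-plate percentage relative to DMSO wells, with cell-free wells as background. CellTiter-Glo One luminescence was read after 48 h at 37°C on 1536-well plates (5 μl) of NOMO1 or SEM (500 cells/well) or P12-Ichikawa (1000 cells/well) leukemia cells. The cells had been adapted for at least four passages in each medium and pin-dosed with library compounds in DMSO from 47 μM to 0.79 nM in 11 threefold steps.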

[1] = HPLM + 10% dialyzed FBS, 0.000781 µM
[2] = HPLM + 10% dialyzed FBS, 0.00234 µM
[3] = HPLM + 10% dialyzed FBS, 0.00702 µM
[4] = HPLM + 10% dialyzed FBS, 0.0211 µM
[5] = HPLM + 10% dialyzed FBS, 0.0632 µM
[6] = HPLM + 10% dialyzed FBS, 0.19 µM
[7] = HPLM + 10% dialyzed FBS, 0.569 µM
[8] = HPLM + 10% dialyzed FBS, 1.71 µM
[9] = HPLM + 10% dialyzed FBS, 5.12 µM
[10] = HPLM + 10% dialyzed FBS, 15.4 µM
[11] = HPLM + 10% dialyzed FBS, 46.1 µM
[12] = RPMI 5 mM glucose + 10% FBS, 0.000781 µM
[13] = RPMI 5 mM glucose + 10% FBS, 0.00234 µM
[14] = RPMI 5 mM glucose + 10% FBS, 0.00702 µM
[15] = RPMI 5 mM glucose + 10% FBS, 0.0211 µM
[16] = RPMI 5 mM glucose + 10% FBS, 0.0632 µM
[17] = RPMI 5 mM glucose + 10% FBS, 0.19 µM
[18] = RPMI 5 mM glucose + 10% FBS, 0.569 µM
[19] = RPMI 5 mM glucose + 10% FBS, 1.71 µM
[20] = RPMI 5 mM glucose + 10% FBS, 5.12 µM
[21] = RPMI 5 mM glucose + 10% FBS, 15.4 µM
[22] = RPMI 5 mM glucose + 10% FBS, 46.1 µM
[23] = RPMI 5 mM glucose + 10% dialyzed FBS, 0.000781 µM
[24] = RPMI 5 mM glucose + 10% dialyzed FBS, 0.00234 µM
[25] = RPMI 5 mM glucose + 10% dialyzed FBS, 0.00702 µM
[26] = RPMI 5 mM glucose + 10% dialyzed FBS, 0.0211 µM
[27] = RPMI 5 mM glucose + 10% dialyzed FBS, 0.0632 µM
[28] = RPMI 5 mM glucose + 10% dialyzed FBS, 0.19 µM
[29] = RPMI 5 mM glucose + 10% dialyzed FBS, 0.569 µM
[30] = RPMI 5 mM glucose + 10% dialyzed FBS, 1.71 µM
[31] = RPMI 5 mM glucose + 10% dialyzed FBS, 5.12 µM
[32] = RPMI 5 mM glucose + 10% dialyzed FBS, 15.4 µM
[33] = RPMI 5 mM glucose + 10% dialyzed FBS, 46.1 µM

Row | SMILES | cell viability [1] | cell viability [2] | cell viability [3] | cell viability [4] | cell viability [5] | cell viability [6] | cell viability [7] | cell viability [8] | cell viability [9] | cell viability [10] | cell viability [11] | cell viability [12] | cell viability [13] | cell viability [14] | cell viability [15] | cell viability [16] | cell viability [17] | cell viability [18] | cell viability [19] | cell viability [20] | cell viability [21] | cell viability [22] | cell viability [23] | cell viability [24] | cell viability [25] | cell viability [26] | cell viability [27] | cell viability [28] | cell viability [29] | cell viability [30] | cell viability [31] | cell viability [32] | cell viability [33]
1 | CC(C)(C)[C@]1(O)C[C@@H]2OC(=O)C[C@@]23C(=O)O[C@@H]2OC(=O)[C@H](O)C213 (some centres undefined) | 113% | 108% | 109% | 104% | 110% | 99.1% | 104% | 111% | 105% | 113% | 115% | 110% | 139% | 120% | 148% | 114% | 108% | 113% | 90.4% | 118% | 134% | 125% | – | – | – | – | – | – | – | – | – | – | –
2 | Cc1n[nH]c2ccc(-c3cncc(OC[C@@H](N)Cc4ccccc4)c3)cc12 | 117% | 124% | 117% | 108% | 123% | 98.2% | 71.6% | 56.3% | 14.5% | 5.34% | 4.07% | 105% | 105% | 116% | 110% | 102% | 98% | 92.7% | 64% | 7.19% | 4.27% | 3.39% | – | – | – | – | – | – | – | – | – | – | –
3 | CC(C)[C@H](C(=O)Nc1ccc(C(=O)NO)cc1)c1ccccc1 | – | – | – | – | – | – | – | – | – | – | – | 115% | 116% | 126% | 140% | 139% | 148% | 133% | 74.7% | 11.3% | 9.31% | 9.34% | 105% | 101% | 121% | 121% | 120% | 120% | 111% | 56.6% | 8.81% | 8.39% | 8.47%
4 | Nc1cc(N2CCCCC2)nc(N)[n+]1[O-] | 98.9% | 122% | 115% | 112% | 124% | 120% | 121% | 75.6% | 124% | 61.5% | 127% | 100% | 125% | 108% | 110% | 106% | 116% | 121% | 78.9% | 122% | 58.2% | 120% | 115% | 132% | 114% | 116% | 120% | 129% | 108% | 79.8% | 135% | 83.9% | 133%
